Test results: US20230122249A1, “1H-PYRAZOLO[4,3-d]PYRIMIDINE COMPOUNDS AS TOLL-LIKE RECEPTOR 7 (TLR7) AGONISTS” (BRISTOL-MYERS SQUIBB COMPANY, priority 2020, published 2023)

Experiments:
[1] = test system: CD69 in human whole blood; test: Induction of CD69 in human whole blood (hWB); assay type: cell-based; conditions: heparinized human whole blood, 17 h, CD69 surface staining; 100% set to 1 uM resiquimod; average where assay repeated
Procedure: The induction of Type I interferon (IFN) MX-1 genes and the B-cell activation marker CD69 are downstream events that occur upon activation of the TLR7 pathway. The following is a human whole blood assay that measures their induction in response to a TLR7 agonist.
Heparinized human whole blood was harvested from human subjects and treated with test TLR7 agonist compounds at 1 mM. The blood was diluted with RPMI 1640 media and Echo was used to predot 10 nL per well giving a final concentration of 1 uM (10 nL in 10 uL of blood). After mixing on a shaker for 30 sec, the plates were covered and placed in a 37° C. chamber for o/n=17 hrs. Fixing/lysis buffer was prepared (5×->1×in H2O, warm at 37° C.; Cat# BD 558049) and kept the perm buffer (on ice) for later use.
For surface markers staining (CD69): prepared surface Abs: 0.045 ul hCD14-FITC (ThermoFisher Cat # MHCD1401)+0.6 ul hCD19-ef450 (ThermoFisher Cat #48-0198-42)+1.5 ul hCD69-PE (cat# BD555531)+0.855 ul FACS buffer. Added 3 ul/well, spin1000 rpm for 1 min and mixed on shaker for 30 sec, put on ice for 30 mins. Stop stimulation after 30 minutes with 70 uL of prewarmed 1×fix/lysis buffer and use Feliex mate to resuspend (15 times, change tips for each plate) and incubate at 37° C. for 10 minutes.
Centrifuge at 2000 rpm for 5 minutes aspirate with HCS plate washer, mix on shaker for 30 sec and then wash with 70 uL in dPBS and pelleted 2 xs (2000 rpm for 5 min) and 50 ul wash in FACS buffer pelleted 1 xs(2000 rpm for 5 min). Mix on shaker for 30 sec. For Intracellular markers staining (MX-1): Add 50 ul of BD Perm buffer III and mix on shaker for 30 sec. Incubate on ice for 30 minutes (in the dark). Wash with 50 uL of FACS buffer 2×(spin @2300 rpm×5 min after perm) followed by mixing on shaker for 30 sec. Resuspended in 20 ul of FACS buffer containing MX1 antibody ( )(4812)-Alexa 647: Novus Biologicals #NBP2-43704AF647) 20 ul FACS bf+0.8 ul hlgG+0.04 ul MX-1. Spin 1000 rpm for 1 min, mix on shaker for 30 se and the samples were incubated at RT in the dark for 45 minutes followed by washing 2×FACS buffer (spin @2300 rpm×5 min after perm). Resuspend 20 ul (35 uL total per well) of FACS buffer and cover with foil and place in 4° C. to read the following day. Plates were read on iQuePlus. The results were loaded into toolset and […] curves are generated in curve master. The y-axis 100% is set to 1 uM of resiquimod.

[2] = target: T1, human TLR7 (Homo sapiens, UniProt Q9NYK1); test: Human TLR7 agonist activity (hTLR7 reporter) assay in HEK-Blue TLR7 cells, SEAP readout; assay type: cell-based; conditions: 18 h treatment, average where assay repeated
T1 construct: host or cells: HEK-Blue TLR7 cells (engineered human embryonic kidney cells)
T1 sequence (Q9NYK1 27-1049): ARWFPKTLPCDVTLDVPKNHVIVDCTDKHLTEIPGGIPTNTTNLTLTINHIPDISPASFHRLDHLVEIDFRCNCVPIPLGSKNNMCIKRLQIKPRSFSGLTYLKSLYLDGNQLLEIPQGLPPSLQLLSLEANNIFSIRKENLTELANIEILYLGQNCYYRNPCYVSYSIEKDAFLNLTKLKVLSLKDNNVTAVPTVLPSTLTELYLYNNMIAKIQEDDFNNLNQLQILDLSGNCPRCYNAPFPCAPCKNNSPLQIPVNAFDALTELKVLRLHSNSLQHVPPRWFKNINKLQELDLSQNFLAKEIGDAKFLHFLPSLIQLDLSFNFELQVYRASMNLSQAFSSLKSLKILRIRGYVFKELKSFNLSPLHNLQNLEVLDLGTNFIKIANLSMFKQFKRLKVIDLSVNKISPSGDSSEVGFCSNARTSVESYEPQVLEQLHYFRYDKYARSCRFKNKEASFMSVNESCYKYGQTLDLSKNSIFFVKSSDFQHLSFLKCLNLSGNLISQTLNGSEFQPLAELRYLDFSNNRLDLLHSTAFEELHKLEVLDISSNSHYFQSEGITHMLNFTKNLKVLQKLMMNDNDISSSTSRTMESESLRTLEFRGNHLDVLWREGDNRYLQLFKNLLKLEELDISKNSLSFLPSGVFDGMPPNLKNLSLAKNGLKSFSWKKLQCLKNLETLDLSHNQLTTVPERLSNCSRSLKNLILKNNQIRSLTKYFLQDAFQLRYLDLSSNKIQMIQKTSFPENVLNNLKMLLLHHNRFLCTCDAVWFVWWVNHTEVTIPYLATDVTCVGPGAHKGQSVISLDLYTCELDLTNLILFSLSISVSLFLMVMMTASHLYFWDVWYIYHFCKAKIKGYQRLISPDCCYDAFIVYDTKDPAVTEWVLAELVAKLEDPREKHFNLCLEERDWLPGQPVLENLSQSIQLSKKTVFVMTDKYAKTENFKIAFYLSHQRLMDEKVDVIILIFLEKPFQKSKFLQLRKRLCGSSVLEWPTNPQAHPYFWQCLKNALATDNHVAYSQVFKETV
Procedure: This procedure describes a method for assaying human TLR7 (hTLR7) agonist activity of the compounds disclosed in this specification.
HEK-Blue™ TLR7 cells were added to each well of a 384-well tissue-culture plate (15,000 cells per well) and incubated 16-18 h at 37° C., 5% CO2. Compounds (100 nl) were dispensed into wells containing the HEK-Blue™ TLR cells and the treated cells were incubated at 37° C., 5% CO2. After 18 h treatment ten microliters of freshly-prepared Quanti-Blue™ reagent (Invivogen) was added to each well, incubated for 30 min (37° C., 5% CO2) and SEAP levels measured using an Envision plate reader (OD=620 nm). The half maximal effective concentration values (EC50; compound concentration which induced a response halfway between the assay baseline and maximum) were calculated.

COc1cc(C(=O)N2C[C@@H]3C[C@H]2CN3)ccc1Cn1ncc2nc(N)nc(NCC3CC4(CC4)C3)c21 [Compound 178]
EC50 [1]: 156 nM
EC50 [2]: 365 nM

COc1cc(C(=O)N2C[C@@H]3C[C@H]2CN3C)ccc1Cn1ncc2nc(N)nc(NCC3CC4(CC4)C3)c21 [Compound 179]
EC50 [1]: 13.1 nM
EC50 [2]: 36.5 nM

COc1cc(C(=O)N2CC3(CNC3)C2)ccc1Cn1ncc2nc(N)nc(NCC3CC4(CCC4)C3)c21 [Compound 180]
EC50 [1]: 363 nM
EC50 [2]: 728 nM

COc1cc(C(=O)N2C[C@@H]3C[C@H]2CN3)ccc1Cn1ncc2nc(N)nc(NCC3CC4(CCC4)C3)c21 [Compound 181]
EC50 [1]: 110 nM
EC50 [2]: 254 nM

COc1cc(C(=O)N2C[C@H]3CNC[C@H]3C2)ccc1Cn1ncc2nc(N)nc(NCC3CC4(CCC4)C3)c21 [Compound 182]
EC50 [1]: 202 nM
EC50 [2]: 394 nM

COc1cc(CN2CCN(CCO)CC2)ccc1Cn1ncc2nc(N)nc(NCC3CC4(CC4)C3)c21 [Compound 183]
EC50 [1]: 48.5 nM
EC50 [2]: 31.5 nM

COc1cc(C(=O)N2CCN(CCO)CC2)ccc1Cn1ncc2nc(N)nc(NCC3CC4(CC4)C3)c21 [Compound 184]
EC50 [1]: 110 nM
EC50 [2]: 67.5 nM

COc1cc(CN2CCN(CCO)CC2)ccc1Cn1ncc2nc(N)nc(NCC3CC4(C3)CC(F)(F)C4)c21 [Compound 185]
EC50 [1]: 117 nM
EC50 [2]: 482 nM

COc1cc(CN(C)C)ccc1Cn1ncc2nc(N)nc(NCC3CC4(C3)CC(F)(F)C4)c21 [Compound 186]
EC50 [1]: 783 nM
EC50 [2]: 950 nM

COc1cc(C(=O)N2CC3(CN(C)C3)C2)ccc1Cn1ncc2nc(N)nc(NCC3CC4(C3)CC(F)(F)C4)c21 [Compound 187]
EC50 [1]: 420 nM
EC50 [2]: 2310 nM

COc1cc(C(=O)N2C[C@H]3CN(C)C[C@H]3C2)ccc1Cn1ncc2nc(N)nc(NCC3CC4(C3)CC(F)(F)C4)c21 [Compound 188]
EC50 [1]: 493 nM
EC50 [2]: 810 nM

COc1cc(C(=O)N2C[C@H]3C[C@@H]2CN3C)ccc1Cn1ncc2nc(N)nc(NCC3CC4(C3)CC(F)(F)C4)c21 [Compound 189]
EC50 [1]: 1000 nM
EC50 [2]: 780 nM

COc1cc(C(=O)NC2CN(C)C2)ccc1Cn1ncc2nc(N)nc(NCC3CC4(CC4)C3)c21 [Compound 190]
EC50 [1]: 168 nM
EC50 [2]: 315 nM

COc1cc(C(=O)N[C@H]2CCN(C)C2)ccc1Cn1ncc2nc(N)nc(NCC3CC4(CC4)C3)c21 [Compound 192]
EC50 [1]: 21.9 nM
EC50 [2]: 47.3 nM

COc1cc(C(=O)N[C@@H]2CCN(C)C2)ccc1Cn1ncc2nc(N)nc(NCC3CC4(CC4)C3)c21 [Compound 193]
EC50 [1]: 15.2 nM
EC50 [2]: 48.1 nM

COc1cc(C(=O)NC2CCN(C(C)C)CC2)ccc1Cn1ncc2nc(N)nc(NCC3CC4(CC4)C3)c21 [Compound 194]
EC50 [1]: 101 nM
EC50 [2]: 104 nM

COc1cc(C(=O)NC2CCN(C3CC3)CC2)ccc1Cn1ncc2nc(N)nc(NCC3CC4(CC4)C3)c21 [Compound 195]
EC50 [1]: 411 nM
EC50 [2]: 193 nM

CCCN1CCC(NC(=O)c2ccc(Cn3ncc4nc(N)nc(NCC5CC6(CC6)C5)c43)c(OC)c2)CC1 [Compound 197]
EC50 [1]: 35.5 nM
EC50 [2]: 32.6 nM

COc1cc(C(=O)NC2CCN(C)CC2)ccc1Cn1ncc2nc(N)nc(NCC3CC4(CC4)C3)c21 [Compound 198]
EC50 [1]: 60.6 nM
EC50 [2]: 90.3 nM

COc1cc(C(=O)N2CC3(CN(C)C3)C2)ccc1Cn1ncc2nc(N)nc(NCC3CC4(CCC4)C3)c21 [Compound 200]
EC50 [1]: 130 nM
EC50 [2]: 124 nM

COc1cc(C(=O)NC2CC3(C2)CN(C)C3)ccc1Cn1ncc2nc(N)nc(NCC3CC4(CC4)C3)c21 (stereo not shown) [Compound 201]
EC50 [1]: 206 nM
EC50 [2]: 842 nM

COc1cc(C(=O)NC2CN(C)C2)ccc1Cn1ncc2nc(N)nc(NCC3CC4(CCC4)C3)c21 [Compound 205]
EC50 [1]: 314 nM
EC50 [2]: 328 nM

CCC[C@@H](CCO)Nc1nc(N)nc2cnn(Cc3ccc(C(=O)N4CC5(CN(C)C5)C4)cc3OC)c12 [Compound 206]
EC50 [1]: 36.3 nM
EC50 [2]: 93.3 nM

COc1cc(C(=O)NC2CCN(C)CC2)ccc1Cn1nc(C)c2nc(N)nc(NCC3CC4(CC4)C3)c21 [Compound 207]
EC50 [1]: 93.3 nM
EC50 [2]: 325 nM

COc1cc(C(=O)N2C[C@H]3C[C@@H]2CN3C)ccc1Cn1nc(C)c2nc(N)nc(NCC3CC4(CC4)C3)c21 [Compound 208]
EC50 [1]: 45.8 nM
EC50 [2]: 119 nM

CCC[C@@H](CCO)Nc1nc(N)nc2cnn(Cc3ccc(C(=O)N4CC5(CNC5)C4)cc3OC)c12 [Compound 209]
EC50 [1]: 195 nM
EC50 [2]: 242 nM

COc1cc(CN2CC3(CN(C)C3)C2)ccc1Cn1ncc2nc(N)nc(NCc3cc(C)on3)c21 [Compound 211]
EC50 [1]: 33.7 nM
EC50 [2]: 640 nM

COc1cc(CN2CC3(C2)CN(C(C)C)C3)ccc1Cn1ncc2nc(N)nc(NCc3cc(C)on3)c21 [Compound 213]
EC50 [1]: 2.3 nM
EC50 [2]: 53.4 nM

COc1cc(C(=O)N2CC3(CN(C)C3)C2)ccc1Cn1ncc2nc(N)nc(NCc3cc(C)on3)c21 [Compound 214]
EC50 [1]: 10.9 nM
EC50 [2]: 67.6 nM

CCC[C@@H](CCO)Nc1nc(N)nc2cnn(Cc3ccc(CN4CC5(CN(C)C5)C4)cc3OC)c12 [Compound 215]
EC50 [1]: 104 nM
EC50 [2]: 372 nM

CCC[C@@H](CCO)Nc1nc(N)nc2cnn(Cc3ccc(CN4CC5(C4)CN(C(C)C)C5)cc3OC)c12 [Compound 216]
EC50 [1]: 1.3 nM
EC50 [2]: 7.3 nM

COc1cc(C(=O)N2C[C@H]3CN(C)C[C@H]3C2)ccc1Cn1nc(C)c2nc(N)nc(NCC3CC4(CC4)C3)c21 [Compound 217]
EC50 [1]: 10.8 nM
EC50 [2]: 115 nM

CN1C[C@@H]2CN(C(=O)c3ccc(Cn4ncc5nc(N)nc(NCC6CC7(CC7)C6)c54)c(OC(F)F)c3)C[C@@H]2C1 [Compound 218]
EC50 [1]: 35 nM
EC50 [2]: 125 nM

CN1C[C@H]2C[C@@H]1CN2C(=O)c1ccc(Cn2ncc3nc(N)nc(NCC4CC5(CC5)C4)c32)c(OC(F)F)c1 [Compound 219]
EC50 [1]: 37.7 nM
EC50 [2]: 188 nM

CN1CCC(NC(=O)c2ccc(Cn3ncc4nc(N)nc(NCC5CC6(CC6)C5)c43)c(OC(F)F)c2)CC1 [Compound 220]
EC50 [1]: 117 nM
EC50 [2]: 1240 nM
